Results taken from US6069177A, “3-Hydroxy-propanamine derived neuronal reuptake inhibitors” (priority 1997, dated 2000).
Entries after “also recorded” stand apart in the source; their conditions may differ. Where two headings read alike, the source gives them in different places.

Experiments:
[1] = molecular target: T1, human dopamine transporter (hDAT) (Homo sapiens, UniProt Q01959); assay: [3H]WIN35428 binding to cloned human DAT; conditions: Kd (DA)/Kd (compound or drug) in the hDAT binding assay
T1 construct: expressed in transfected cells; membranes of cells expressing the cloned hDAT
Protocol: (§1) These transporters are responsible for neuronal reuptake of the neurotransmitters.
(§2) Cells were incubated in 10% CO2, 90% air at 37° C. and 100% humidity. The selecting antibiotic geneticin sulfate (250 μg/ml) was used during the cell culture for the hNET only.
(§3) For the preparation of homogenates, medium was removed by aspiration. […] Cells were then scraped from the surface with a rubber spatula into a centrifuge tube and collected by centrifugation at 1000×g for 5 min at 4° C. Supernatants were decanted and the pellet was resuspended in the appropriate binding buffer and homogenized with the use of a Polytron for 10 sec at setting 6. This solution was centrifuged at about 36,000×g for 10 minutes (4° C.). The pellet was suspended in the same volume of buffer and the centrifugation was repeated. The supernatants were decanted and the final pellet was suspended in the appropriate buffer and stored at -80° C. until use.
(§4) For the membranal preparation, cells were homogenized in the 50 mM Tris-HCl with 120 mM NaCl (pH 7.4). […] The reaction mixture was incubated at 4° C. for 2 hr. The remaining methods were exactly as described for hSERT above.
(§5) The program was modified by the inventors to calculate the Hill Coefficient (nH). […] One-component models and two-component models were compared using the root mean square error of each fit and the F test.

[2] = molecular target: T2, NE reuptake into rat brain synaptosomes (Rattus norvegicus, UniProt Q63380); assay: biochemical; set-up: species or system rat (male Sprague-Dawley), hippocampal tissue
T2 construct: A crude synaptosomal (P2) fraction was prepared; tissue Harlan Sprague-Dawley (animals); host or cells: rat hippocampus, crude synaptosomal (P2) fraction

[3] = molecular target: T3, 5-HT reuptake into rat brain synaptosomes (Rattus norvegicus, UniProt P31652); assay: 5-HT reuptake inhibition in rat brain synaptosomes; assay type: biochemical, rat (male Sprague-Dawley), cortical tissue; conditions: Ki (5-HT)/Ki (compound or drug); Prozac to Serzone derived from literature Ki
T3 construct: A crude synaptosomal (P2) fraction was prepared; tissue Harlan Sprague-Dawley (animals); host or cells: rat cerebral cortex, crude synaptosomal (P2) fraction
Protocol: (§6) Briefly, the tissue was homogenized in 20 volumes of ice-cold 0.32 M sucrose containing 11 mM glucose, pH 7.4 in a glass Potter-Elvehjemhomogenizer with teflon pestle (8 strokes, 900 rpm). The homogenate was centrifuged at 1,000 g for 10 minutes. The resulting supernatant was then centrifuged at 20,000 g for 20 minutes and the supernatent was discarded.
(§7) Briefly, synaptosomal protein (1.0-2.5 mg) was suspended in a total volume of 1 mL containing oxygenated incubation buffer, 10 μM pargyline to inhibit monoamine oxidase activity, 0.2 mg/mL sodium ascorbate and varying concentrations of other compounds or drugs as indicated in the text. […] After a 5 minute preincubation at 37° C. in a shaking water bath (80 oscillations/minute), the uptake was initiated by the addition of […]. The reaction was stopped after 5 minute by adding 4 mL ice-cold 0.9% (w/v) sodium chloride and rapidly filtered through a Whatman GF/B glass fiber filter in a 48-place Brandel cell harvester. The filter was then washed with an additional 8 mL of wash buffer, placed in a scintillation vial containing 5 mL of Redi-Safe (Beckman Instruments, Fullerton, Calif.) and counted. Specific uptake was calculated as the difference between the total uptake (zero unlabelled ligand) and nonspecific uptake (excess unlabelled ligand).

[4] = molecular target: T4, DA reuptake into rat brain synaptosomes (Rattus norvegicus, UniProt P23977); assay: DA reuptake inhibition in rat brain synaptosomes; assay type: biochemical, rat (male Sprague-Dawley), striatal tissue; conditions: for DA (Rat) Reuptake Inhibition Potency: Ki (DA)/Ki (compound or drug), Prozac to Serzone derived from literature Ki
T4 construct: A crude synaptosomal (P2) fraction was prepared; tissue Harlan Sprague-Dawley (animals); host or cells: rat striatum, crude synaptosomal (P2) fraction

[5] = molecular target: human norepinephrine transporter (hNET) (Homo sapiens, UniProt P23975); assay type: binding
[6] = molecular target: T5, human serotonin transporter (hSERT) (Homo sapiens, UniProt P31645); assay type: binding
T5 construct: expressed in transfected cells; membranes of cells expressing the cloned hSERT
Protocol: as §1, §2, §3
(§8) For the membranal preparation, cells were homogenized in 50 mM Tris-HCl with 120 mM NaCl and 5 mM KC1 (pH 7.4). […] The reaction mixture was incubated at 22° C. for 30 min. The assay was terminated by rapid filtration of the contents of each tube through a GF/B filter strip, which had been pretreated with 0.2% polyethylenimine, with the use of a 48-well Brandel cell harvester. The filter strips were then rinsed five times with ice-cold 0.9% NaCl. Next, individual filters were cut from the strip and placed in a scintillation vial containing 6.5 mL of Redi-Safe (Beckman Instruments, Fullerton, Calif.). Radioactivity was measured with a Beckman liquid scintillation counter (LS 5000TD).
as §5

[7] = test system: 5-HT, NE and DA reuptake into rat brain synaptosomes; assay type: biochemical, rat (male Sprague-Dawley); conditions: for block uptake of all three neurotransmitters (5-HT, NE, and DA), Ki in words: rat brain synaptosomes
Protocol: as §6, §7

hSERT, hNET, and hDAT = assay: Simultaneous binding to cloned human transporters hSERT, hNET and hDAT; conditions: for Simultaneous Transporter Binding Potency: Table 4, each of the potency values greater than 7.0; for Simultaneous Transporter Binding Potency (Human): Table 5, comparison of rat and human data; for simultaneous transporter binding potency, in words: human, each value ≥7.0
Protocol: as §1, §2, §3, §8
For the membranal preparation, cells were homogenized in 50 mM Tris-HCl with 300 mM NaCl and 5 mM KCl (pH 7.4). […] The reaction mixture was incubated at 22° C. for 60 min. The remaining methods were exactly as described for hSERT above.
as §4, §5

[8] = molecular target: T2, NE reuptake into rat brain synaptosomes; conditions: cited from earlier work
[9] = Ki (NE)/Ki (compound or drug), Prozac to Serzone derived from literature Ki
[10] = Kd (NE)/Kd (compound or drug) in the hNET binding assay
[11] = Table 5, comparison of rat and human data
[12] = Kd (5-HT)/Kd (compound or drug) in the hSERT binding assay

T1 sequence (Q01959 whole entry): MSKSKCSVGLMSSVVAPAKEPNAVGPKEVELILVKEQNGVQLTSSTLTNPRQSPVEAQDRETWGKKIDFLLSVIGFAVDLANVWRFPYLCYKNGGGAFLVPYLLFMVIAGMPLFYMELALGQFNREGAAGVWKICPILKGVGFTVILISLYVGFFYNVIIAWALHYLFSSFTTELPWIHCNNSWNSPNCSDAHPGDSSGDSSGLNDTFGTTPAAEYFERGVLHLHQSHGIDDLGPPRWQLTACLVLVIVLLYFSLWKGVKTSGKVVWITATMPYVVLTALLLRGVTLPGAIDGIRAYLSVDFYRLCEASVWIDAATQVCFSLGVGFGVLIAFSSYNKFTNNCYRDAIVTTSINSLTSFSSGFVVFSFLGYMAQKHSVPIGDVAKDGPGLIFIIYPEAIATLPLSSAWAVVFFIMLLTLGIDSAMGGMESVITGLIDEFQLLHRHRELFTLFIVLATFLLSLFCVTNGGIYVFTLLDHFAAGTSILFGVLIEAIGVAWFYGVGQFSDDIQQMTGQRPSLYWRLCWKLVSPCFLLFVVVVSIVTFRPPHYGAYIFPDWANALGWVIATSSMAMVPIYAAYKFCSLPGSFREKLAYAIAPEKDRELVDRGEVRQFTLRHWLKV
human norepinephrine transporter (hNET), sequence (P23975 whole entry): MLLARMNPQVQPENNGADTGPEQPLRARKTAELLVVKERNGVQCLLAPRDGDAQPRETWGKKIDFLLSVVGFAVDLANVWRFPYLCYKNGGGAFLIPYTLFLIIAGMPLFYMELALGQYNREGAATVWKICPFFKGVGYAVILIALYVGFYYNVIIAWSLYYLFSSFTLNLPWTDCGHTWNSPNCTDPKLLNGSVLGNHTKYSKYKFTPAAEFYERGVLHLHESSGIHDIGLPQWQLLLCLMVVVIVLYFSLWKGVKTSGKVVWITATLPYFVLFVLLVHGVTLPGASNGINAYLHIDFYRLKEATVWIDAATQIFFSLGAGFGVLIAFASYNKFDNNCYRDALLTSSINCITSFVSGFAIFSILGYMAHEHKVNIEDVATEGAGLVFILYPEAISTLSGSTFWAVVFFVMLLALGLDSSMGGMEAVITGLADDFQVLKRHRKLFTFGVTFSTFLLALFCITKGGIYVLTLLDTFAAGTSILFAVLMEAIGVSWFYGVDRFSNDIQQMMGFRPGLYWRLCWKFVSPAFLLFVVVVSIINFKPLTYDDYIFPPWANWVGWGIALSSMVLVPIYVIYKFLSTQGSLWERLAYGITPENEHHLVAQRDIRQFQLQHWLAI
T2 sequence (Q63380 1-617): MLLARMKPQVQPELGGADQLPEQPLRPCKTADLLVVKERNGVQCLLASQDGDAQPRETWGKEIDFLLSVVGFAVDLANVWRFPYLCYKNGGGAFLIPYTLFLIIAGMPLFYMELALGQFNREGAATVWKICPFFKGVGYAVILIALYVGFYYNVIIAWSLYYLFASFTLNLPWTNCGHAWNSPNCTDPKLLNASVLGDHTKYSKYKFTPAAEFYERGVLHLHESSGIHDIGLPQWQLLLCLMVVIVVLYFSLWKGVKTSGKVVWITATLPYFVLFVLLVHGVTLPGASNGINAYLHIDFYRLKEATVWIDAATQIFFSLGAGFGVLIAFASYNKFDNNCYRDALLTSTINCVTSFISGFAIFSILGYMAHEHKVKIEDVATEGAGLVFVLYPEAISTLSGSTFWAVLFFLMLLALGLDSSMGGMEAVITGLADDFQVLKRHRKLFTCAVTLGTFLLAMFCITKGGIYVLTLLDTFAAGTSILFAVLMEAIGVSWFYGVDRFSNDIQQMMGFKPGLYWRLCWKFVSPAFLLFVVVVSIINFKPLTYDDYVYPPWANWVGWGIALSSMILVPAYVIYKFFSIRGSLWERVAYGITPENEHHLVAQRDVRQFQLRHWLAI
T4 sequence (P23977 whole entry): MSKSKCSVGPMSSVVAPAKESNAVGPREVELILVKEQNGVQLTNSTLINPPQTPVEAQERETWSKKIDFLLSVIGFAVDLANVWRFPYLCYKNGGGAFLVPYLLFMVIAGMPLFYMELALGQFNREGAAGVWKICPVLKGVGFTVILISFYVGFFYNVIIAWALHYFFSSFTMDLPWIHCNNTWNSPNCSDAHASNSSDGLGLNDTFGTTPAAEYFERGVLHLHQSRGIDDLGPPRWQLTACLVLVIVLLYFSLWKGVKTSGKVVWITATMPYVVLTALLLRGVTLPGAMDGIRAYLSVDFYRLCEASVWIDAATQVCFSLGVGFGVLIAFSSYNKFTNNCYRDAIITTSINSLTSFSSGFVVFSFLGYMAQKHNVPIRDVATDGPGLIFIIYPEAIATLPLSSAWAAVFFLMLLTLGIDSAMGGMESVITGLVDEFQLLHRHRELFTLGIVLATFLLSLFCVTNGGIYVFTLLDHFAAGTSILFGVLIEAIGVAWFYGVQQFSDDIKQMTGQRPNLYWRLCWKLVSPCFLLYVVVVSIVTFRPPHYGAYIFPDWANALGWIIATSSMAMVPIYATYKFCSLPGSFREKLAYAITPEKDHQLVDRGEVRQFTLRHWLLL
T5 sequence (P31645 whole entry): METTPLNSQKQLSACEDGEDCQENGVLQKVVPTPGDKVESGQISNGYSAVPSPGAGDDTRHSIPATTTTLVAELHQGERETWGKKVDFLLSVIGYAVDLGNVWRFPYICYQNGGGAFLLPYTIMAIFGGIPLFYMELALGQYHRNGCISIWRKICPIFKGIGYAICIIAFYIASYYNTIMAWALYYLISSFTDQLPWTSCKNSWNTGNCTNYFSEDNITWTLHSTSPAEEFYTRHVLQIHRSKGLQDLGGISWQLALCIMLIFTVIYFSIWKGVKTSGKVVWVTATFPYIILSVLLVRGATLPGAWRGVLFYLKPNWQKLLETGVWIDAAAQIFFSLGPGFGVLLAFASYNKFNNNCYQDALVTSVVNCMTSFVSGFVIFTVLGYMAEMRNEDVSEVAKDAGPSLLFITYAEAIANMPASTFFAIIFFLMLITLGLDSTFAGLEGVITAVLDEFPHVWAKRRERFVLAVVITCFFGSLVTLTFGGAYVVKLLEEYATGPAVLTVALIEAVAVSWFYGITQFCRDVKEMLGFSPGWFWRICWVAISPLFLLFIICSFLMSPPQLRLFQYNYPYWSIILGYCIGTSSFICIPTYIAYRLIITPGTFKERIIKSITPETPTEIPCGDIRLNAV
T3 sequence (P31652 whole entry): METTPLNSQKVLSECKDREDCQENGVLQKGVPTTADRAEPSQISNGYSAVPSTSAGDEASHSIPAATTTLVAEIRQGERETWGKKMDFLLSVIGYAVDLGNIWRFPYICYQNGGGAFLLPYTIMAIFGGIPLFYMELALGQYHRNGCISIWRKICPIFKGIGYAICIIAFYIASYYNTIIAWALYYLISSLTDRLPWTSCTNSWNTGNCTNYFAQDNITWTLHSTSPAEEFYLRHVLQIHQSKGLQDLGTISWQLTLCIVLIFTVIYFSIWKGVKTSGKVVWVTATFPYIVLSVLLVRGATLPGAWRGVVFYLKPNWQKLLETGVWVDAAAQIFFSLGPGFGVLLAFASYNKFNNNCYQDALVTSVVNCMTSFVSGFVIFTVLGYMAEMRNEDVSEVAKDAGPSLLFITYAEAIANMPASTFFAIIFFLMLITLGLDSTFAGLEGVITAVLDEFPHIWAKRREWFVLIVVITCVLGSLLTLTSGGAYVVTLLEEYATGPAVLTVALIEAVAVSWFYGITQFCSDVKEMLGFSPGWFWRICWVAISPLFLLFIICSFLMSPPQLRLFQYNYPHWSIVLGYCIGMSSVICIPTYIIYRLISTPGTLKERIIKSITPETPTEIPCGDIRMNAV

Compound	hDAT Binding Potency [1]	DA (Rat) Reuptake Inhibition Potency [4]	hNet Binding Potency [5, 10]	Simultaneous Reuptake Inhibition Potency [7]	Simultaneous Reuptake Inhibition Potency (Rat) [7, 11]	Simultaneous Transporter Binding Potency (hSERT, hNET, and hDAT)	Simultaneous Transporter Binding Potency (Human) (hSERT, hNET, and hDAT)	hSert Binding Potency [6, 12]	simultaneous reuptake inhibition potency, in words [7]	block uptake of all three neurotransmitters (5-HT, NE, and DA), Ki in words [7]	simultaneous transporter binding potency, in words (hSERT, hNET, and hDAT)	Simultaneous Reuptake Inhibition Potency (Rat) [7]	also measured
COc1ccc([C@H](CN(C)C)[C@@H](O)C2CCCCC2)cc1.Cl (racemic) [Compound E, (2RS,3SR)-3-Cyclohexyl-3-hydroxy-2-(4'-methoxyphenyl)-propyl-N,N-dimethylammonium chloride]	0.69	0.10	1.24	no	no	no	no						NE (Rat) Reuptake Inhibition Potency [2, 9]: 0.54; 5-HT (Rat) Reuptake Inhibition Potency [3]: 0.62; hSert Binding Potency [6]: 70
CN(C)C[C@H](c1ccc2ccccc2c1)[C@H](O)C(C)(C)C (relative stereo) [Compound A, (2RS,3RS)-3-Hydroxy-4,4-dimethyl-2-(2'-naphthyl)pentyl-N, N-dimethyl-ammonium chloride]	7.16	1.11	73.6	yes (A compound or drug is considered to possess simultaneous reuptake inhibition potency if each of the potency values is greater than 1.0.)	yes (A compound or drug is considered to possess simultaneous reuptake inhibition potency if each of the potency values is greater than 1.0.)	yes (A compound or drug is considered to possess "simultaneous transporter binding potency" if each of the potency values is greater than 7.0.)	yes (A compound or drug is considered to possess "simultaneous transporter binding potency" if each of the potency values is greater than 7.0.)	1,750	possess the quality of "simultaneous reuptake inhibition potency"	nanomolar to 10 nanomolar range	qualify for simultaneous transporter binding potency		NE (Rat) Reuptake Inhibition Potency [2, 9]: 12.0; Ki ([2]; rat brain synaptosomes): 10 ± 1 nM; Ki ([4]; rat brain synaptosomes): 60 ± 10 nM; reuptake inhibition of all three neurotransmitters in both the rat and human models, in words [7]: potently inhibit reuptake of all three neurotransmitters in both the rat and human models
CN(C)C[C@H](c1ccc2ccccc2c1)[C@H](O)c1ccccc1 (relative stereo) [Compound B, (2RS,3RS)-3-Hydroxy-2-(2'-naphthyl)-3-phenylpropyl-N, N-dimethylammonium chloride]	34.3			yes (A compound or drug is considered to possess simultaneous reuptake inhibition potency if each of the potency values is greater than 1.0.)	yes (A compound or drug is considered to possess simultaneous reuptake inhibition potency if each of the potency values is greater than 1.0.)	yes (A compound or drug is considered to possess "simultaneous transporter binding potency" if each of the potency values is greater than 7.0.)	yes (A compound or drug is considered to possess "simultaneous transporter binding potency" if each of the potency values is greater than 7.0.)		possess the quality of "simultaneous reuptake inhibition potency"	nanomolar to 10 nanomolar range	qualify for simultaneous transporter binding potency		hSert Binding Potency [6]: 376; reuptake inhibition of all three neurotransmitters in both the rat and human models, in words [7]: potently inhibit reuptake of all three neurotransmitters in both the rat and human models; simultaneous transporter binding potency, tightened criterion (hSERT, hNET, and hDAT; all potency values must be greater than 30): still qualifies
CC(C)(C)[C@@H](O)[C@H](CN)c1ccc2ccccc2c1 (relative stereo) [Compound C, (2RS,3RS)-3-hydroxy-4,4-dimethyl-2-(2'-naphthyl)pentyl-ammonium chloride]	0.09	0.57	39.9	no	no	no	no	347					
NC[C@H](c1ccc2ccccc2c1)[C@H](O)c1ccccc1 (relative stereo) [Compound D, (2RS,3RS)-3-Hydroxy-2-(2'-naphthyl)-3-phenyl-propylammoni um chloride]	16.8			no	no	yes (A compound or drug is considered to possess "simultaneous transporter binding potency" if each of the potency values is greater than 7.0.)	yes (A compound or drug is considered to possess "simultaneous transporter binding potency" if each of the potency values is greater than 7.0.)	340	narrowly misses the criterion for simultaneous reuptake inhibition potency	nanomolar to 10 nanomolar range	qualify for simultaneous transporter binding potency; also recorded: meets the criterion for simultaneous transporter binding potency		5-HT (Rat) Reuptake Inhibition Potency [3]: 0.68
COc1ccc(C(CN(C)C)C2(O)CCCCC2)cc1 (centres unmarked) [Effexor ®, reference compound]		0.18		no								no	
Fc1ccc([C@@H]2CCNC[C@H]2COc2ccc3c(c2)OCO3)cc1 [Paxil ®, reference compound]				no								no	NE (Rat) Reuptake Inhibition Potency [2]: 3.61; hNet Binding Potency [5]: 55; Ki [8]: 33 ± 2 nM
CNCCC(Oc1ccc(C(F)(F)F)cc1)c1ccccc1 (centres unmarked) [Prozac ®, reference compound]		0.02		no								no	
CCc1nn(CCCN2CCN(c3cccc(Cl)c3)CC2)c(=O)n1CCOc1ccccc1 [Serzone ®, reference compound]		0.03											Simultaneous Reuptake Inhibition Potency ([7]; Table 2, each of the potency values greater than 1.0): no
CNCC[C@@H](Oc1ccccc1C)c1ccccc1 [Tomoxetine, reference compound]				no									
